# Where two headings read alike, the source gives them in different places.
# Legend:
# [1] = Microsomal stability in mouse liver microsomes (MLM); assay type: in vitro ADME; conditions: mouse liver microsomes 0.5 mg/ml, 1 μM compound, NADPH
# Protocol: (§1) The procedure for investigating the metabolism of selected compounds was carried out in microsomal fractions of the liver (of rats, mice, humans) in the presence of a phase I metabolism cofactor (NADPH).
# (§2) The rate of enzymatic decomposition of the compound in liver microsomes in in vitro analysis was determined by keeping a reaction mixture comprising 0.5 mg/ml of pooled human, rat or mouse liver microsomes, 1 μM test compound, 1.5 mM […] (Carbosynth, UK, cat. no. NN108711101) and 1.5 mM magnesium chloride in 0.1 M sodium phosphate buffer (pH 7.4) in a solid-state thermostat at 37° C. (XenoTech, USA, order no. H2610, cat. no. R1000, cat. no. M1000). Incubation was carried out in three replicates.
# (§3) To determine the stability of compounds under sample preparation conditions, an aliquot in two replicates with the test compound and a microsomal fraction devoid of the NADPH cofactor, which was incubated for 40 minutes at 37° C.
# (§4) Reactions were stopped at 0, 10, 20, 30 and 40 min time points by way of adding an ice mixture of acetonitrile:methanol (3:1) comprising an internal standard.
# (§5) Samples were then centrifuged to remove the precipitated protein, supernatants were analyzed using HPLC-MS/MS to determine in vitro clearance (CLint) of the compounds. The Agilent 6410 mass spectrometer (Agilent, USA) combined with the Agilent 1260 Infinity II HPLC liquid chromatograph (Agilent, USA) and a cooling autosampler controlled by MassHunter software (Agilent, USA) was used as an HPLC-MS/MS system. Chromatographic analysis was performed on a C18 reversed-phase HPLC column (Agilent, Waters or equivalent) in a gradient elution mode in a system of mobile phases: 0.1% formic acid in water/0.1% formic acid in acetonitrile, flow rate: 0.5 ml/min, column T=35° C. Mass spectrometric detection was performed with electrospray ionization in multiple reaction monitoring mode. Precursor ions, fragment ions and collision energies for each substance were selected experimentally.
# (§6) A graph of dependence of the logarithmic ratio between substance's peak area and internal standard's peak area vs time was built. The dependent coefficient of this line corresponded to the elimination rate constant k, on the basis of which the in vitro clearance CLint was calculated:
# (§7) Based on resulting in vitro clearance CLint values, the microsomal stability of the selected compounds for humans, rats and mice was concluded.
# [2] = Microsomal stability in rat liver microsomes (RLM); assay type: in vitro ADME; conditions: rat liver microsomes 0.5 mg/ml, 1 μM compound, NADPH
# Protocol: as §1, §2, §3, §4, §5, §6, §7
# [3] = target: CDK13/Cyclin K (Homo sapiens, UniProt Q14004); experiment: Inhibition of CDK13/Cyclin K kinase activity (ADP-Glo); assay type: biochemical
# CDK13/Cyclin K, sequence (Q14004 whole entry): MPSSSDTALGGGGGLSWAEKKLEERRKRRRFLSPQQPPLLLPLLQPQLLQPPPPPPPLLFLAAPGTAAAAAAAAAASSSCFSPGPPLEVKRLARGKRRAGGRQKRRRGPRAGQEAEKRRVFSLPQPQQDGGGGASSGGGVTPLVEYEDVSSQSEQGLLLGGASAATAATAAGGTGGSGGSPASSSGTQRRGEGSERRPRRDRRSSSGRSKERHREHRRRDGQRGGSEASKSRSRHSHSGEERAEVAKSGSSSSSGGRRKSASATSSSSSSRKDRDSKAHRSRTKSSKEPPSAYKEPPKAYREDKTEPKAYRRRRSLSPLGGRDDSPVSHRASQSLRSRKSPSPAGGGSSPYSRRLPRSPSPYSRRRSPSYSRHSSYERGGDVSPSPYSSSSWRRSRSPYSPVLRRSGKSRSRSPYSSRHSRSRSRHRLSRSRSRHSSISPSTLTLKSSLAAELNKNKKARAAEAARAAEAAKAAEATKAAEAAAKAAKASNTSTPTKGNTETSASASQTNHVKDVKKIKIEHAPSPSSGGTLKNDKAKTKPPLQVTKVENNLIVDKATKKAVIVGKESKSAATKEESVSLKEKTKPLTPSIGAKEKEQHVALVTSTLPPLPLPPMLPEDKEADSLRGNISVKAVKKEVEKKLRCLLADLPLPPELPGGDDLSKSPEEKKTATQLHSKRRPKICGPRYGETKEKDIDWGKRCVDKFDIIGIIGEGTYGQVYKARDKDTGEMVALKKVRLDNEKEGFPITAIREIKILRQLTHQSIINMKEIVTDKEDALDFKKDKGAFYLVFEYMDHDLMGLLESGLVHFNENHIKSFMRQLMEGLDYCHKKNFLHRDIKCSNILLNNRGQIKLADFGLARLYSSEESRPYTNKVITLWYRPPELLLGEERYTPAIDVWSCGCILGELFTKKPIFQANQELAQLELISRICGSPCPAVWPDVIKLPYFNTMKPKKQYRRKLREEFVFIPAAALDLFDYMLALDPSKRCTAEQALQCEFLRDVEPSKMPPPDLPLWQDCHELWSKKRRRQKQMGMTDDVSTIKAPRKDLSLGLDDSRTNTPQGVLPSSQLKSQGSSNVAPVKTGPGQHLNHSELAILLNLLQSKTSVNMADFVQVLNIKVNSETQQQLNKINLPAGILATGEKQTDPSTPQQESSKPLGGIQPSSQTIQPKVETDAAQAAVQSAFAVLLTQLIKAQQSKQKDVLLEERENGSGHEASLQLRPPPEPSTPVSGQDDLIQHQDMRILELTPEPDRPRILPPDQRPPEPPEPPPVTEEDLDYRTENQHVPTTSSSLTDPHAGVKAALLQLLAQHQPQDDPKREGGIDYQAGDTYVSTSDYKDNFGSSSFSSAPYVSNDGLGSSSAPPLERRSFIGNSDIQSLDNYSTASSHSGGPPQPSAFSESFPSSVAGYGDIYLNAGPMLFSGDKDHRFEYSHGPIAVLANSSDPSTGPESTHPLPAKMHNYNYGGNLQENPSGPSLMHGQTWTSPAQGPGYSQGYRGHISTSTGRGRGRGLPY
# CDK13/Cyclin K, sequence (O75909 whole entry partner): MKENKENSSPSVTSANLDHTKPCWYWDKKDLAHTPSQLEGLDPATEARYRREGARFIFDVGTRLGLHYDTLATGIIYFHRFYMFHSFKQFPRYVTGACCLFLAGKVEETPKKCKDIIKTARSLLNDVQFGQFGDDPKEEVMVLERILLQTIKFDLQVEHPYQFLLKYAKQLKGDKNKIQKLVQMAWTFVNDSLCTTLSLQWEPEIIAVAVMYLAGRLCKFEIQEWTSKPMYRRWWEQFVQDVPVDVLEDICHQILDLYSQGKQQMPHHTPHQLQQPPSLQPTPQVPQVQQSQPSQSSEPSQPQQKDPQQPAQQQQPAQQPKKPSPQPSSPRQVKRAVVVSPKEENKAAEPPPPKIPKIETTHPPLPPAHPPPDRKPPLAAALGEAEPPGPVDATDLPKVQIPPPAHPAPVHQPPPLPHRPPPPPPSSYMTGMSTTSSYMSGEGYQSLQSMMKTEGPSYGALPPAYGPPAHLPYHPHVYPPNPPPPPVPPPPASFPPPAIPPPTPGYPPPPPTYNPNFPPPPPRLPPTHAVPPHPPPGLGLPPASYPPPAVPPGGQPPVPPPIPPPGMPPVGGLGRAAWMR
# Outline: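 ADP-Glo luminescence quantified ATP consumption after a 40-60 minute, 25° C. reaction with ATP plus CDKtide, Histone H1 or PDKtide, following a 10-minute compound–kinase preincubation in DTT-supplemented kinase buffer A. Compounds spanned 11 concentrations from 50 μM in 4-fold dilutions; IC50 fitted to a four-parameter model.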
# [4] = Passive membrane permeability through PAMPA artificial membrane, pH 7.4; assay type: in vitro ADME; conditions: pH 7.4, 10 μmol, 20 hours at room temperature, mean of multiple measurements, read-out: PAMPA passive permeability Pe
# Outline: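 Compound at 10 μmol in 0.01 M phosphate buffer pH 7.4 placed in donor wells over lecithin-phospholipid-impregnated PVDF filter, buffer in acceptor; 20 h at room temperature. Donor and acceptor levels measured by RP-HPLC-UV; Pe (cm/s) and membrane retention R (%) calculated.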
# [5] = Microsomal stability in human liver microsomes (HLM); assay type: in vitro ADME; conditions: 1 μM test compound
# Protocol: as §1, §2, §3, §4, §5, §6, §7
# [6] = mean of multiple measurement series, ATP 10 μM, read-out: CDK13/Cyclin K IC50
# [7] = mean value from several measurements, read-out: IC50 CDK13/Cyclin K
Structure (SMILES),MLM Clint [1],RLM Clint [2],"IC50 [3, 6] [nM]","IC50 [3, 7] [nM]","Papp at 20 h, 10 μmol [4] [×10⁻⁶ cm/s]",In vitro clearance CLint (HLM) [5]
"O=C1c2[nH]cc(-c3nc(N[C@H]4CCC5(CC5)NC4)ncc3C(F)(F)F)c2CCCN1C1CC1 [CDK7_1276, 3-(2-{[(6S)-4-azaspiro[2.5]octan-6-yl]amino}-5-(trifluoromethyl)py-rimidin-4-yl)-7-cyclopropyl-1H,4H,5H,6H,7H, 8H-pyrrolo[2,3-c]azepin-8-one]",B (50 μl/(min · mg of protein) > Clint > 20 μl/(min · mg of protein)),B (50 μl/(min · mg of protein) > Clint > 20 μl/(min · mg of protein)),152,50 to 200,5 to 10,B (50 μl/(min · mg of protein) > Clint > 20 μl/(min · mg of protein))
"CC(C)N1CCCc2c(-c3nc(N[C@H]4CCC5(CC5)NC4)ncc3C(F)(F)F)c[nH]c2C1=O [CDK7_1277, 3-(2-{[(6S)-4-azaspiro[2.5]octan-6-yl]amino}-5-(trifluoromethyl)py-rimidin-4-yl)-7-(propan-2-yl)-1H,4H,5H,6H,7H, 8H-pyrrolo[2,3-c]azepin-8-one]",B (50 μl/(min · mg of protein) > Clint > 20 μl/(min · mg of protein)),B (50 μl/(min · mg of protein) > Clint > 20 μl/(min · mg of protein)),425,> 200,5 to 10,B (50 μl/(min · mg of protein) > Clint > 20 μl/(min · mg of protein))
